These are literature values, as cited in patent EP1450788B1, “USE OF COUMARIN OR ITS HYDROXY DERIVATIVE FOR THE TREATMENT OF MEDIUM OR SEVERE VASCULAR AND/OR LYMPHATIC EDEMA” (priority 2001, dated 2003).

One series relates to hepatic tissue. The note with it: oral doses of about 200 mg/day.
The subject of series [1] is lymphoedema of the upper limbs. Particulars: 90 mg/day versus 135 mg/day; lymphoedema of the upper limbs secondary to surgery and irradiation for breast cancer.

For `O=c1ccc2ccc(O)cc2o1` [7-hydroxy-coumarin, 7-hydroxycoumarin], the “haematic levels by the transdermic route” value (transdermal administration) is on record as “a decrease of the haematic levels”.
Regarding `O=c1ccc2ccccc2o1` [coumarin, 5,6-benzopyran-2-one], the “cytosolytic hepatocytic enzymes in the plasma (biochemical markers of the hepatic damage)” value in the series with hepatic tissue is given as “high concentrations”. For the same molecule, the “clinical efficacy (apparent benefits of the two coumarin dosages)” value in series [1] is “No difference was found”. The “haematic levels, transdermal route relative to oral route” value (transdermal administration versus oral route) is given as 10 fold.
